Results: patent US7316913B2, “Methods and means for influencing intracellular communication and intracellular organelle transport” (Stiftelsen Universitetsforskning Bergen, priority 2001, dated 2008)

Columns and labels:
[1] = system: VP22 intercellular exchange; settings: destruction of the filamentary actin; cited from earlier work
TNTs between PC12 cells [2] = format: cell-based, rat
PC12 cells [3] = assay: Thymidin G1/S cell cycle block: mitosis stadia and TNT formation; format: cell-based, rat; settings: 2.5 mM thymidin, 14 hours before passage; analysed ca. 1 hour after passage
Method: FIG. 12a—fluorescence microscopy image of PC12 cells ca. 1 hour after cell passage and staining with WGA, 20 minutes fixing in 4% paraformaldehyde/4% sucrose, 3 minutes treatment with 0.2% TRITON™ X-100 and nucleus staining with Dapi—left images in (a): the 14 hour long treatment of the cells before passage with 2.5 mM thymidin in the cell culture medium blocked the cells in the G1/S phase of the cell cycle and prevented a division of the cells; right images in (a): in non-treated PC12 cells (controls) there can be observed in the nucleus staining mitosis stadia (arrows). Despite the absence of mitosis stadia the thymidin treated PC12 cells form TNTs (arrow tips), (bar: 20 micrometer);
Via a three-dimensional videomicroscopic analysis of suprarenal medulla cells in accordance with Example 1 point 2a, b there was detected the formation of an organized TNT based network between the cells, via which a syncytium arises (FIGS. 2e, f, FIGS. 3n-q2, FIGS. 4a-c) and organelles can be unidirectionally transferred (FIGS. 4d-h, FIG. 14). TNTs were, in accordance with Example 16 found in all to date investigated cells structure systems such as PC12 cells, HEK cells (FIG. 16a) and primary cultures of the medulla (FIG. 16b) and of the hippocampus (FIG. 16c). With a special colouring method, moreover, very long TNTs have been found. […]

PC12 cells [4] = assay: Filipin staining of cellular cholesterol content; format: cell-based, rat; settings: 5 millimolar methyl-β-cyclodextrin; filipin fluorescence, mean grey scale values
Method: FIG. 18—the effect of cholesterol on the stability of TNTs. Two hours after passage of PC12 cells, the cell culture medium was exchanged for DMEM with 5, 8 or 10 millimolar saccharose (controls) or DMEM with 5, 8 or 10 mM methyl-β-cyclodextrin and the cells incubated for half an hour at 30° C. and 10% CO2. After the addition of WGA a three-dimensional analysis of 10 randomly selected microscopic fields was carried out (Olympus IX70, 100× objective, […]™ System, Piezo-z-stepper, in each case 40 sections) and the number of TNTs determined. […] Quantifications yielded a strong reduction of the TNT number with increasing methyl-β-cyclodextrin concentration; 40% reduction at 5 millimolar methyl-β-cyclodextrin; 93% reduction at 8 millimolar methyl-β-cyclodextrin; 100% at 10 millimolar methyl-β-cyclodextrin (c1). […] For this purpose, the methyl-β-cyclodextrin or saccharose containing DMEM of the analysed cell was exchanged with DMEM having 20 microgramm per millilitre filipin and 15 minutes later the intensity of the fluorescence staining analysed in vivo with a FITC/TRITC/DAPI filter set (Chroma, Brattleboro). In detail, after excitation at 400 nm four randomly selected microscopic fields were imaged and the mean grey scale values determined. […]

TNTs between PC12 cells [5] = assay: Number of TNTs in PC12 cells after cholesterol extraction (WGA staining, three-dimensional microscopy); format: cell-based, rat; settings: half an hour, 2 h after passage, vs saccharose controls

C=C1[C@@H](C)[C@H]2[C@H](Cc3ccccc3)NC(=O)[C@]23[C@H](OC(C)=O)/C=C/[C@@](C)(O)C(=O)[C@@H](C)C/C=C/[C@H]3[C@@H]1O [cytochalasin D]
intercellular exchange of VP22 [1]: can be prevented

C/C1=C/C(=O)O[C@@H]2C[C@@H](CC[C@H](C)/C=C\CC1)O[C@@](O)([C@@H]1CSC(=O)N1)C2 [latrunculin B]
effect on TNT formation and on TNTs present (TNTs between PC12 cells [2]): TNTs no longer form and TNTs present are destroyed

Cc1cn([C@H]2C[C@H](O)[C@@H](CO)O2)c(=O)[nH]c1=O [thymidin]
TNT formation retained in comparison with the controls (PC12 cells [3]): 86.5% | number of mitosis stadia in comparison with the controls (PC12 cells [3]): 20%

methyl-β-cyclodextrin
reduction of the cellular cholesterol content (PC12 cells [4]): 20% | reduction of the TNT number (TNTs between PC12 cells [5]; 8 millimolar methyl-β-cyclodextrin in DMEM): 93% | reduction of the TNT number (TNTs between PC12 cells [5]; 10 millimolar methyl-β-cyclodextrin in DMEM): 100%
